Drawing on ChEMBL document CHEMBL2073741, “MRP8, ATP-binding cassette C11 (ABCC11), is a cyclic nucleotide efflux pump and a resistance factor for fluoropyrimidines 2',3'-dideoxycytidine and 9'-(2'-phosphonylmethoxyethyl)adenine” (J Biol Chem, 2003), this text covers Activity for 1 molecule.

Molecules are shown by their SMILES.

In the assay the target is ATP-binding cassette sub-family C member 11 (Homo sapiens) (UniProt Q96J66). As to the kind of experiment: TP_TRANSPORTER: transport into inside-out membrane vesicles in membrane vesicle from MRP8-2-expressing LLC-PK1 cells. Type of assay: functional, cell membranes.
Chain of ATP-binding cassette sub-family C member 11 (Homo sapiens) (Q96J66 whole entry): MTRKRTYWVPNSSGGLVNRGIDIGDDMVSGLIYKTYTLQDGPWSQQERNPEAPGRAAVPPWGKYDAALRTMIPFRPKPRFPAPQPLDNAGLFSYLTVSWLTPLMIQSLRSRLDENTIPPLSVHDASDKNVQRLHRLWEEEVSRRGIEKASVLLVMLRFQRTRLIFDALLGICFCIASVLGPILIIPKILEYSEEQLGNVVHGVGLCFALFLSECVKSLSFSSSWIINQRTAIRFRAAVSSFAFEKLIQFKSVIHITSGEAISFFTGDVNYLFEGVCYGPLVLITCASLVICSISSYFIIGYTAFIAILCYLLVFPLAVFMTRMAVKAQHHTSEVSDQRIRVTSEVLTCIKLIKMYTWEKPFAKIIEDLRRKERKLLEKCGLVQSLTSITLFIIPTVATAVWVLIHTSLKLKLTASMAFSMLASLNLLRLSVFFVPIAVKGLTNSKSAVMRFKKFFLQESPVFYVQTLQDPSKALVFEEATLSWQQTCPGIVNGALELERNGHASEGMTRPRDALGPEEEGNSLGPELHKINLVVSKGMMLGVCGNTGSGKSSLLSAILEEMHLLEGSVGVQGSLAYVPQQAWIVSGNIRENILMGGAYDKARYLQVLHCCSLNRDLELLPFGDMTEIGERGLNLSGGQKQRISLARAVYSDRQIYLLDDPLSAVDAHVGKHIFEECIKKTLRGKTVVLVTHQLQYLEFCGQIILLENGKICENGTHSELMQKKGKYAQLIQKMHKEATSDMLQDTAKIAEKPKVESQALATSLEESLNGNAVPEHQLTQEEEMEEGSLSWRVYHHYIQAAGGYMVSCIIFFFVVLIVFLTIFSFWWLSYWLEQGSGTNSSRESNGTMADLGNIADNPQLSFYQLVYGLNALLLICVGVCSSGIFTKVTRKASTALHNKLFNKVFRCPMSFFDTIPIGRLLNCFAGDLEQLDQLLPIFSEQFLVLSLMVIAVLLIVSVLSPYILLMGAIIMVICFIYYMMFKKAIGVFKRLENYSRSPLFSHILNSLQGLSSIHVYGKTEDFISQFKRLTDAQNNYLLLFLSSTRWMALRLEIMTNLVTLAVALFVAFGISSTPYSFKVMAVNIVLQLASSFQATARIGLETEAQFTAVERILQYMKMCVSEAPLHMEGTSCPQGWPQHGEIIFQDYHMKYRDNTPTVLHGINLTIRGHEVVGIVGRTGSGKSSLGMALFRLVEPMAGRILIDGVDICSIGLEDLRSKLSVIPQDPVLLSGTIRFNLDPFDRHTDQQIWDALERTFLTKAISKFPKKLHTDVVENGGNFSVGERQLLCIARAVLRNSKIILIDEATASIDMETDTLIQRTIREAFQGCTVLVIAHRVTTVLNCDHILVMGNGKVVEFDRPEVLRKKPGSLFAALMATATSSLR

As to `O=c1[nH]c(=O)n([C@H]2C[C@H](O)[C@@H](COP(=O)(O)O)O2)cc1F`, the Activity result is “substrate []”.
